Data reported in patent publication US5747660A, “Nucleic acid encoding prostaglandin F2α receptor regulatory protein” (priority 1995, dated 1998).

What was measured:
[1] = test system: prostaglandin F2α receptor (FP); assay: Effect of intracellular messenger altering agents on [3H]PGF2α binding and on FPRP inhibition of it; assay type: cell-based; conditions: for % Control [^3 H]PGF2α Binding, FP + FPRP: FP + FPRP transfected cells treated with the agent; for % Control [^3 H]PGF2α Binding, FP + pSG5: FP + pSG5 transfected cells treated with the agent; for % Inhibition (FPRP inhibition of [^3 H]PGF2α binding): in presence of the agent at the concentration/time given; for effect of agent on FPRP inhibition of [^3 H]PGF2α binding (words): FP + FPRP transfected cells pretreated with the agent; for effect of agent on basal [^3 H]PGF2α binding: FP transfected cells pretreated with the agent
Description: In a third experiment, transfected cells were treated for 30 min with exposure to the following: phorbol 12-myristate 13-acetate 10^-8 M, prostaglandin E1, 10^-7 M, A23187 10^-6 M, okadaic acid 10^-6 M, or 8-Br-cAMP 10^-5 M (Table 4).
The effect of brefeldin A (3 μg/ml, 2 hr), chloroquine (100 μM, 6 hr) and tunicamysin (2.5 μg/ml, 20 hr) was determined.

[2] = target: prostaglandin F2α receptor (FP), cDNA construct whose species the place does not tell
[3] = target: rat prostaglandin F2α receptor regulatory protein (FPRP) (rat)
[4] = test system: prostaglandin F2α receptor (FP); assay: [3H]PGF2α specific binding to COS cells cotransfected with FP cDNA and a test cDNA construct; assay type: cell-based, rat, mouse; conditions: COS cells cotransfected with FP + the named DNA; FP alone = 100

`C=C1[C@@H](O)[C@@H]2O[C@]3(CC[C@H](/C=C/[C@@H](C)[C@@H]4CC(C)=C[C@@]5(O[C@H](C[C@@](C)(O)C(=O)O)CC[C@H]5O)O4)O3)CC[C@H]2O[C@@H]1[C@@H](O)C[C@H](C)[C@H]1O[C@@]2(CCCCO2)CC[C@H]1C` [Okadaic acid, okadaic acid] was tested, and the “% Control [^3 H]PGF2α Binding, FP + FPRP” value [1] was 45 ± 3%, the “% Control [^3 H]PGF2α Binding, FP + pSG5” value [1] was 94 ± 3% and the “% Inhibition (FPRP inhibition of [^3 H]PGF2α binding)” value (shortened to “% Inhibition”) [1] was 52%.

βPDGF Receptor gave a % control ^3 H!PGF2α specific binding, co-transfection [2] of 90 % control.

For `CCN(CC)CCCC(C)Nc1ccnc2cc(Cl)ccc12` (stereo not drawn) [Chloroquine, chloroquine], the “effect of agent on FPRP inhibition of [^3 H]PGF2α binding (words)” value (from here on “effect of agent on FPRP inhibition … (words)”) [1] was “little or no effect”, the “% Control [^3 H]PGF2α Binding, FP + FPRP” value [1] was 37 ± 3% and the “% Control [^3 H]PGF2α Binding, FP + pSG5” value [1] was 91 ± 3%. The “effect of agent on basal [^3 H]PGF2α binding” value (“effect of agent on basal” for short) [1] was “little or no effect” and the “% Inhibition” value [1] was 59%.

Molecule Prolactin Receptor has a % control ^3 H!PGF2α specific binding, co-transfection [2] of 130 % control.

TGN38 gave a % control ^3 H!PGF2α specific binding, co-transfection [2] of 135 % control.

`Nc1ncnc2c1nc(Br)n2[C@@H]1O[C@@H]2COP(=O)(O)O[C@H]2[C@H]1O` [8-Br-cAMP] was tested, and the “% Control [^3 H]PGF2α Binding, FP + FPRP” value [1] was 52 ± 3%, the “% Control [^3 H]PGF2α Binding, FP + pSG5” value [1] was 94 ± 6% and the “% Inhibition” value [1] was 45%.

With tunicamycin the “effect of agent on FPRP inhibition … (words)” value [1] was “approximately the same extent”, the “% Control [^3 H]PGF2α Binding, FP + FPRP” value [1] was 23 ± 3% and the “% Control [^3 H]PGF2α Binding, FP + pSG5” value [1] was 46 ± 3%. For the same molecule, the “effect of agent on basal” value [1] was “decreased” and the “% Inhibition” value [1] was 50%.

In the case of bcl-2, the % control ^3 H!PGF2α binding, third construct co-transfected with FP and FPRP [3] is reported as 30 % control and the % control ^3 H!PGF2α specific binding, co-transfection [2] is reported as 84 % control.

alpha-1 trypsin inhibitor gave a % control ^3 H!PGF2α binding, third construct co-transfected with FP and FPRP [3] of 38 % control and a % control ^3 H!PGF2α specific binding, co-transfection [2] of 141 % control.

For `CNc1ccc2oc(C[C@H]3O[C@@]4(CC[C@H]3C)O[C@H]([C@H](C)C(=O)c3ccc[nH]3)[C@H](C)C[C@H]4C)nc2c1C(=O)O` [Calcium ionophore A23187], the “% Control [^3 H]PGF2α Binding, FP + FPRP” value [1] was 51 ± 6%, the “% Control [^3 H]PGF2α Binding, FP + pSG5” value [1] was 102 ± 6% and the “% Inhibition” value [1] was 50%.

Progesterone Receptor was tested, and the % control ^3 H!PGF2α specific binding, co-transfection [2] was 103 % control.

`C[C@H]1CCC/C=C/[C@@H]2C[C@H](O)C[C@H]2[C@H](O)/C=C/C(=O)O1` [Brefeldin A, brefeldin A] was tested, and the “effect of agent on FPRP inhibition … (words)” value [1] was “no effect”, the “effect of agent on FPRP inhibition … (words)” value ([1]; listed as brefeldin A) was “little or no effect” and the “% Control [^3 H]PGF2α Binding, FP + FPRP” value [1] was 27 ± 3%. For the same molecule, the “% Control [^3 H]PGF2α Binding, FP + pSG5” value [1] was 91 ± 3%, the “effect of agent on basal” value [1] was “little or no effect” and the “% Inhibition” value [1] was 70%.

In the case of Vitamin D receptor, the % control ^3 H!PGF2α binding, third construct co-transfected with FP and FPRP [3] is reported as 36 % control and the % control ^3 H!PGF2α specific binding, co-transfection [2] is reported as 131 % control.

With `CCCCC[C@H](O)/C=C/[C@H]1[C@H](O)CC(=O)[C@@H]1CCCCCCC(=O)O` [PGE1, prostaglandin E1] the “% Control [^3 H]PGF2α Binding, FP + FPRP” value [1] was 51 ± 3%, the “% Control [^3 H]PGF2α Binding, FP + pSG5” value [1] was 100 ± 3% and the “% Inhibition” value [1] was 49%.

Molecule crmA has a % control ^3 H!PGF2α binding, third construct co-transfected with FP and FPRP [3] of 29 % control and a % control ^3 H!PGF2α specific binding, co-transfection [2] of 141 % control.

With `CCCCCCCCCCCCCC(=O)OC1C(C)C2(O)C(C=C(CO)CC3(O)C(=O)C(C)=CC32)C2C(C)(C)C12OC(C)=O` (stereo not drawn) [Phorbol 12-myristate 13-acetate, phorbol 12-myristate 13-acetate] the “% Control [^3 H]PGF2α Binding, FP + FPRP” value [1] was 54 ± 3%, the “% Control [^3 H]PGF2α Binding, FP + pSG5” value [1] was 105 ± 7% and the “% Inhibition” value [1] was 50%.

B1: Prolactin Receptor: over-expressed control protein, cotransfected construct (protein, UniProt P16471 25-622, looked up)
Prolactin receptor: QLPPGKPEIFKCRSPNKETFTCWWRPGTDGGLPTNYSLTYHREGETLMHECPDYITGGPNSCHFGKQYTSMWRTYIMMVNATNQMGSSFSDELYVDVTYIVQPDPPLELAVEVKQPEDRKPYLWIKWSPPTLIDLKTGWFTLLYEIRLKPEKAAEWEIHFAGQQTEFKILSLHPGQKYLVQVRCKPDHGYWSAWSPATFIQIPSDFTMNDTTVWISVAVLSAVICLIIVWAVALKGYSMVTCIFPPVPGPKIKGFDAHLLEKGKSEELLSALGCQDFPPTSDYEDLLVEYLEVDDSEDQHLMSVHSKEHPSQGMKPTYLDPDTDSGRGSCDSPSLLSEKCEEPQANPSTFYDPEVIEKPENPETTHTWDPQCISMEGKIPYFHAGGSKCSTWPLPQPSQHNPRSSYHNITDVCELAVGPAGAPATLLNEAGKDALKSSQTIKSREEGKATQQREVESFHSETDQDTPWLLPQEKTPFGSAKPLDYVEIHKVNKDGALSLLPKQRENSGKPKKPGTPENNKEYAKVSGVMDNNILVLVPDPHAKNVACFEESAKEAPPSLEQNQAEKALANFTATSSKCRLQLGGLDYLDPACFTHSFH
modifications: over-expressed construct
B1 was tested, and the “% CONTROL, [^3 H]PGF2α specific binding” value [4] was 130 ± 7%.

B2: Progesterone Receptor: over-expressed control protein, cotransfected construct (protein, UniProt P06401 1-933, looked up)
Progesterone receptor: MTELKAKGPRAPHVAGGPPSPEVGSPLLCRPAAGPFPGSQTSDTLPEVSAIPISLDGLLFPRPCQGQDPSDEKTQDQQSLSDVEGAYSRAEATRGAGGSSSSPPEKDSGLLDSVLDTLLAPSGPGQSQPSPPACEVTSSWCLFGPELPEDPPAAPATQRVLSPLMSRSGCKVGDSSGTAAAHKVLPRGLSPARQLLLPASESPHWSGAPVKPSPQAAAVEVEEEDGSESEESAGPLLKGKPRALGGAAAGGGAAAVPPGAAAGGVALVPKEDSRFSAPRVALVEQDAPMAPGRSPLATTVMDFIHVPILPLNHALLAARTRQLLEDESYDGGAGAASAFAPPRSSPCASSTPVAVGDFPDCAYPPDAEPKDDAYPLYSDFQPPALKIKEEEEGAEASARSPRSYLVAGANPAAFPDFPLGPPPPLPPRATPSRPGEAAVTAAPASASVSSASSSGSTLECILYKAEGAPPQQGPFAPPPCKAPGASGCLLPRDGLPSTSASAAAAGAAPALYPALGLNGLPQLGYQAAVLKEGLPQVYPPYLNYLRPDSEASQSPQYSFESLPQKICLICGDEASGCHYGVLTCGSCKVFFKRAMEGQHNYLCAGRNDCIVDKIRRKNCPACRLRKCCQAGMVLGGRKFKKFNKVRVVRALDAVALPQPVGVPNESQALSQRFTFSPGQDIQLIPPLINLLMSIEPDVIYAGHDNTKPDTSSSLLTSLNQLGERQLLSVVKWSKSLPGFRNLHIDDQITLIQYSWMSLMVFGLGWRSYKHVSGQMLYFAPDLILNEQRMKESSFYSLCLTMWQIPQEFVKLQVSQEEFLCMKVLLLLNTIPLEGLRSQTQFEEMRSSYIRELIKAIGLRQKGVVSSSQRFYQLTKLLDNLHDLVKQLHLYCLNTFIQSRALSVEFPEMMSEVIAAQLPKILAGMVKPLLFHKK
For B2, the “% CONTROL, [^3 H]PGF2α specific binding” value [4] was 103 ± 5%.
